In the supplement of paper PMC10307832:

Each cell line was assayed with CC1(C)CNc2cc(NC(=O)c3cccnc3NCc3ccncc3)ccc21 [Motesanib] + Nc1nc2[nH]cc(CCc3ccc(C(=O)N[C@@H](CCC(=O)O)C(=O)O)cc3)c2c(=O)[nH]1 [Pemetrexed] (partner 0.2 µM) (assay: relative viability (nuclei count vs DMSO), 5 days (fraction); higher = more cells survive). Conditions: first compound 0.01 µM.
Procedure, shortened: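 Lung cancer cell lines in 1536-well plates got either a single drug or a fixed anchor-drug dose together with five library-drug doses (not always all listed) in √10 steps, by pin tool, on the day after seeding. Nuclei were counted after 5 days, and relative viability is the treated-to-vehicle ratio of nuclei counts. Values are medians of duplicate plates.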

Row | Cell Line | relative viability
1 | ChaGo-K-1 | 0.262
2 | NCI-H2405 | 1.05
3 | HOP-62 | 0.288
4 | LU99A | 0.2
5 | BEN | 0.539
6 | HARA | 0.194
7 | HCC-78 | 0.902
8 | NCI-H322M | 0.681
9 | LCLC-97TM1 | 0.175
10 | NCI-H2009 | 0.949
11 | A-427 | 0.963
12 | NCI-H441 | 0.243
13 | NCI-H661 | 0.862
14 | NCI-H1734 | 0.408
15 | NCI-H460 | 0.0586
16 | NCI-H2347 | 0.396
17 | SK-LU-1 | 0.961
18 | 201T | 0.307
19 | NCI-H1915 | 0.54

Row | Cell Line | relative viability
20 | HCC-827 | 0.252
21 | LXF-289 | 0.704
22 | NCI-H23 | 0.645
23 | NCI-H647 | 0.178
24 | CAL-12T | 1.17
25 | NCI-H1651 | 0.544
26 | EPLC-272H | 0.656
27 | NCI-H2228 | 0.366
28 | NCI-H1355 | 1.06
29 | NCI-H3122 | 0.186
30 | NCI-H1437 | 0.297
31 | NCI-H1755 | 0.403
32 | NCI-H2023 | 0.224
33 | HCC-15 | 0.212
34 | PC-14 | 0.131
35 | EKVX | 0.414
36 | LC-2-ad | 0.289
37 | NCI-H1975 | 0.283
38 | RERF-LC-KJ | 0.471

Same assay, conditions: first compound 0.03162 µM

Row | Cell Line | relative viability
39 | ChaGo-K-1 | 0.249
40 | NCI-H2405 | 1.11
41 | HOP-62 | 0.296
42 | LU99A | 0.181
43 | BEN | 0.774
44 | HARA | 0.207
45 | HCC-78 | 0.897
46 | NCI-H322M | 0.627
47 | LCLC-97TM1 | 0.153
48 | NCI-H2009 | 1.02
49 | A-427 | 0.912
50 | NCI-H441 | 0.234
51 | NCI-H661 | 0.925
52 | NCI-H1734 | 0.386
53 | NCI-H460 | 0.0647
54 | NCI-H2347 | 0.406
55 | SK-LU-1 | 0.806
56 | 201T | 0.326
57 | NCI-H1915 | 0.484

Row | Cell Line | relative viability
58 | HCC-827 | 0.301
59 | LXF-289 | 0.845
60 | NCI-H23 | 0.624
61 | NCI-H647 | 0.175
62 | CAL-12T | 1.17
63 | NCI-H1651 | 0.618
64 | EPLC-272H | 0.285
65 | NCI-H2228 | 0.292
66 | NCI-H1355 | 1.04
67 | NCI-H3122 | 0.191
68 | NCI-H1437 | 0.286
69 | NCI-H1755 | 0.356
70 | NCI-H2023 | 0.201
71 | HCC-15 | 0.203
72 | PC-14 | 0.126
73 | EKVX | 0.377
74 | LC-2-ad | 0.259
75 | NCI-H1975 | 0.281
76 | RERF-LC-KJ | 0.502

Same assay, conditions: first compound 0.1 µM

Row | Cell Line | relative viability
77 | ChaGo-K-1 | 0.227
78 | NCI-H2405 | 1.02
79 | HOP-62 | 0.214
80 | LU99A | 0.185
81 | BEN | 0.73
82 | HARA | 0.128
83 | HCC-78 | 0.858
84 | NCI-H322M | 0.556
85 | LCLC-97TM1 | 0.151
86 | NCI-H2009 | 1.01
87 | A-427 | 0.963
88 | NCI-H441 | 0.238
89 | NCI-H661 | 0.887
90 | NCI-H1734 | 0.333
91 | NCI-H460 | 0.0699
92 | NCI-H2347 | 0.387
93 | SK-LU-1 | 0.547
94 | 201T | 0.318
95 | NCI-H1915 | 0.451

Row | Cell Line | relative viability
96 | HCC-827 | 0.271
97 | LXF-289 | 0.898
98 | NCI-H23 | 0.518
99 | NCI-H647 | 0.16
100 | CAL-12T | 1.19
101 | NCI-H1651 | 0.519
102 | EPLC-272H | 0.254
103 | NCI-H2228 | 0.254
104 | NCI-H1355 | 1.05
105 | NCI-H3122 | 0.184
106 | NCI-H1437 | 0.318
107 | NCI-H1755 | 0.38
108 | NCI-H2023 | 0.245
109 | HCC-15 | 0.188
110 | PC-14 | 0.132
111 | EKVX | 0.368
112 | LC-2-ad | 0.268
113 | NCI-H1975 | 0.274
114 | RERF-LC-KJ | 0.495

Same assay, conditions: first compound 0.3162 µM

Row | Cell Line | relative viability
115 | ChaGo-K-1 | 0.235
116 | NCI-H2405 | 1.11
117 | HOP-62 | 0.209
118 | LU99A | 0.18
119 | BEN | 0.582
120 | HARA | 0.185
121 | NCI-H322M | 0.691
122 | LCLC-97TM1 | 0.16
123 | NCI-H2009 | 1.06
124 | A-427 | 0.992
125 | NCI-H441 | 0.259
126 | NCI-H661 | 0.986
127 | NCI-H1734 | 0.272
128 | NCI-H460 | 0.0738
129 | NCI-H2347 | 0.447
130 | SK-LU-1 | 0.417
131 | 201T | 0.296
132 | NCI-H1915 | 0.463
133 | HCC-827 | 0.277

Row | Cell Line | relative viability
134 | LXF-289 | 0.896
135 | NCI-H23 | 0.447
136 | NCI-H647 | 0.143
137 | CAL-12T | 1.16
138 | NCI-H1651 | 0.531
139 | EPLC-272H | 0.273
140 | NCI-H2228 | 0.191
141 | NCI-H1355 | 1.07
142 | NCI-H3122 | 0.202
143 | NCI-H1437 | 0.32
144 | NCI-H1755 | 0.401
145 | NCI-H2023 | 0.217
146 | HCC-15 | 0.179
147 | PC-14 | 0.128
148 | EKVX | 0.394
149 | LC-2-ad | 0.262
150 | NCI-H1975 | 0.271
151 | RERF-LC-KJ | 0.472

Same assay, conditions: first compound 1 µM

Row | Cell Line | relative viability
152 | ChaGo-K-1 | 0.237
153 | NCI-H2405 | 1.02
154 | HOP-62 | 0.173
155 | LU99A | 0.174
156 | BEN | 0.749
157 | HARA | 0.212
158 | HCC-78 | 0.906
159 | NCI-H322M | 0.605
160 | LCLC-97TM1 | 0.173
161 | NCI-H2009 | 0.973
